Test results published in patent publication US12553889B2, “Small molecules targeting the intrinsically disordered structural ensemble of α-synuclein protect against diverse α-synuclein mediated dysfunctions” (The Regents of the University of California, priority 2019, dated 2026).
Entries after “also recorded” stand apart in the source; their conditions may differ.

Tests used:
αSyn [1] = biological target: T1, αSyn (Homo sapiens, UniProt P37840); experiment: αSyn fibrillization assay (Thioflavin T fluorescence); assay type: biochemical; parameters: made in house; host or cells: E. coli BL21(DE3), pET-21d; conditions: compound at 300 μM, 70 μM αSyn, vs 0.5% DMSO control
Procedure: Fibrillization assays. Prior to each aggregation assay, purified αSyn at 5 mg/mL was treated with 6M guanidine and dialyzed 36 hours in a 3500 MW cutoff Slide-A-lyzer with three changes of 20 mM sodium phosphate and 100 mM NaCl pH 7.4 buffer. αSyn was centrifuged at 130,000 g for 40 minutes in a Beckman Ultracentrifuge to remove seeding species and supernatant used for assays. For initial testing, 60 mM compound in DMSO was diluted to 300 μM in 0.5% DMSO and controls contained equivalent DMSO concentrations. Assay samples contained 20 μM Thioflavin T, filtered through a 0.45 μm Acrodisc filter prior to each assay, 70 μM αSyn in 20 mM sodium phosphate and 100 mM NaCl pH 7.4. One teflon bead, (0.125″ PTFE, Grade 2 polished) was placed in each well of a 96 well black with clear bottom assay plate (Corning) in a total volume of 500 μL. The plate was sealed with Mylar and parafilm, placed at 37° C. in a Tecan F200Pro Plate Reader and shaken at an amplitude of 6 mm for 120 hours continuously except for a brief time during reading of the plate. Thioflavin T fluorescence was detected by excitation at 440 nm and reading emissions at 485 nm each 60 minutes throughout the assay. To generate αSyn seeds for the seeding assays, αSyn at 10 mg/mL was incubated with stirring at 43° C. for 24 hours followed by exhaustive sonication. 1% (by mass) of seeds were added to the fibrillization assay. Samples were plated in quadruplicate, and the replicates averaged for each experiment for plotted data. Data were analyzed in Excel using XL-fit sigmoidal model #600 and when normalized, comparing fluorescence values at 50 hours for compounds as a percentage of DMSO control.
α-Syn for the Fibrillization assay. Wildtype human αSyn was produced from a pET-21d plasmid (Millipore, Burlington, MA) in E. coli BL21(DE3) cells induced by addition of 1 mM […] and incubated at 16° C. overnight. Cells were harvested by centrifugation at 4,000×g for 10 minutes and stored at −80° C. Frozen cells expressing αSyn protein were resuspended in 50 mM Tris, pH 7.5, 1 mM TCEP, 1 mM EDTA, and 1 mM L-Methionine and lysed using a microfluidizer. Lysate was centrifuged at 7000×g for 0.5 hours at 21° C. The supernatant was boiled in a water bath for 15 minutes, cooled on ice and centrifuged at 45,000 g for 30 min. The supernatant was filtered through a 0.2 μm Corning filter and subjected to ion exchange chromatography using a Capto ImpRes Q (GE Healthcare, Upssala, Sweden) anion exchange (IEX) column at ambient temperature. The column was eluted with a gradient of 100 column volumes from 0 to 1M NaCl using an AKTA Explorer 100 Liquid Chromatography System (GE Healthcare, Uppsala, Sweden). Pure αSyn fractions were desalted to 50 mM KPO4, pH 7.5 and 50 mM NaCl using PD-10 columns (GE Healthcare, Chicago, IL) and concentrated to 5 mg/mL or 10 mg/ml (3K MWCO, Amicon Ultra, Millipore, Burlington, MA).
Statistical Analysis of compound activity in Fibrillization assays. For the analyses of compound activity in the αSyn fibrillization assay, the relative fluorescence unit (RFU) data obtained from compounds were compared to those of DMSO, to identify those that are statistically different from DMSO at various time points. Each experiment contained 4 replicates of each compound and of DMSO control. […] A repeated measures analysis of variance was performed on logarithmic transformed data using a linear mixed effects model which included Compound, Time, Replicate (Compound) and Compound*Time. The covariance structure across time that minimized the corrected Akaike Information Criterion (AICC) was used and the Kenward and Roger method was used to determine the appropriate degrees of freedom. Each compound mean was compared to the DMSO mean using Bonferroni multiplicity adjusted t-tests. Statistical analyses were conducted using the MIXED procedure in SAS 9.1 (SAS Institute Inc. Cary, NC, USA). Statistical significance refers to p-value<0.05.

[2] = tested on: H4 neuroglioma cells over-expressing αSyn; experiment: Phagocytosis assay; assay type: cell-based, human; conditions: for reversal of αSyn mediated inhibition of phagocytosis: 100 nM; for phagocytosis restored, percent of that in cells with endogenous αSyn levels (control): phagocytosis inhibited by αSyn overexpression
Procedure: A human neuroglioma H4 cell-derived cell line stably over-expressing αSyn from a tetracycline inducible promoter was generated using the tet inducible TRex system (Invitrogen division of Life Technologies) and grown in serum-free X-VIVO media (Lonza Group, Basel, Switzerland). Cells were seeded in 96-well plates at densities yielding 75 to 90% confluency during the phagocytosis assay. The next day, compound was added along with 5 μg/ml tetracycline to induce αSyn overexpression. Cells were cultured overnight and the next day were fed […] red fluorescent beads (Invitrogen, Carlsbad, CA) for 90 minutes at a cell-to-bead ratio of 1:10. Plates were gently washed with 100 μl/well media twice, fixed and stained with HEMA3 (Thermo Fisher, Waltham, MA). Plates were dried overnight and read on an ArrayScan (Thermo Fisher, Waltham, MA). As the HEMA3 stain absorbs light, the internalized beads are less fluorescent than the outside beads. Tet/non-tet and 484228 samples were run on each plate.

[3] = tested on: H4 neuroglioma cells over-expressing αSyn; conditions: earlier report; cited from earlier work
αSyn [4] = biological target: T1, αSyn; parameters: made in house; host or cells: E. coli; conditions: prior study (Toth et al 2014); cited from earlier work
αSyn [5] = biological target: T1, αSyn; parameters: made in house; host or cells: E. coli; conditions: prior study (Toth et al 2014); cited from earlier work; remark: listed apart in the source

Row | Compound | impact on αSyn fibrillization (thioflavin fluorescence signal) (αSyn [1]) | reversal of αSyn mediated inhibition of phagocytosis [2] | phagocytosis restored, percent of that in cells with endogenous αSyn levels (control) [2] | further results
1 | CNC(=O)C[C@H](N)Cc1cccc2ccccc12 [Compound 573416, (R)-3-amino-N-methyl-4-(naphthalen-1-yl)butanamide] | no impact on αSyn fibrillization |  |  | 
2 | NC(=O)[C@H](Cc1c[nH]cn1)NC(=O)c1ccccn1 [Compound 573418, (S)-N-(1-amino-3-(1H-imidazol-4-yl)-1-oxopropan-2-yl)picolinamide] |  | complete reversal |  | 
3 | CNC(=O)CC(N)c1ccc(-c2ccccc2)cc1 (stereo not drawn) [Compound 581674, 3-([1,1′-biphenyl]-4-yl)-3-amino-N-methylpropanamide] | inhibit fibrillization; also recorded: blocks αSyn fibrillization |  | 100% | 
4 | NC(=O)[C@@H](NC(=O)c1csc(-c2ccccc2)n1)C1CCCCC1 [Compound 573419, (S)-N-(2-amino-1-cyclohexyl-2-oxoethyl)-2-phenylthiazole-4-carboxamide] |  | complete reversal |  | 
5 | O=S(=O)(Nc1ccc(F)cc1)c1ccccc1 [Compound 484228, N-(4-fluorophenyl)benzenesulfonamide] |  |  | ≤ 80% | restoration of phagocytosis in the face of αSyn overexpression [3]: restored normal phagocytosis; reversal of αSyn over-expression mediated neurodegeneration (αSyn [4]): protective activity; impact on aggregation of the recombinant protein (αSyn [5]): without impact on aggregation
